Like-named read-outs stand apart in the source and are kept apart here.
What was measured:
HIV = conditions: literature; cited from earlier work
HBV [1] = conditions: background statement; cited from earlier work
HIV-1 = assay: Anti-HIV evaluation in human PBM cells; format: cell-based; conditions: HIV-1
From the text: (§1) Human PBM cells from healthy donors, seronegative for HIV-1 and HBV, are isolated by a single-step Ficoll-Hypaque discontinuous gradient centrifugation and propagated as described previously (Schinazi et al., Antimicrobial Agents Chemother., 1990, 34:1061; 1992, 36:2423; 1993, 37:875). Compounds are screened for activity against HIV-1 and cytotoxicity by a protocol reported previously reported by Schinazi, et al. The prototype strain of HIV-1LAI obtained from the Centers for Disease Control and Prevention, Atlanta, Ga., is used as the standard virus for the studies in human PBM cells.

Vero cells = assay: Cytotoxicity in Vero cells; format: cell-based
Experimental: (§2) We also perform toxicity assays by measuring the inhibition of uptake of […] dye by treated cells. These assays are done in 96 well plates. After the standard 10 day treatment regimen medium is removed and PBS containing MTS dye added to each well. After a 2 hour incubation the absorbance of the metabolized product is measured at 490 nm.

PBM cells = assay: Cytotoxicity in PBM cells; format: cell-based, human
Experimental: as §2, §1

[2] = Cytotoxicity in CEM cells; format: cell-based; conditions: human
Experimental: as §2

HBV [3] = assay: Cell culture assay for anti-HBV activity (2.2.15 cells, HBV DNA in medium by Southern blot); format: cell-based, Hepatitis B virus; conditions: for EC50: read-out: Anti-HBV EC50
From the text: We follow the protocol described by Korba and Gerin(Antiviral Res., 1992, 19:55) and Pai et al. (Antimicrobial Agents Chemother., 1996, 40:380) which is used widely in the field. The HepG 2 2.2.15 cells contain a stably integrated HBV genome, the transcript from which serves as a template for viral replication. The cells produce virions which are elaborated into the medium. The production of the virion DNA is monitored by analysis of medium by Southern blotting. Drugs which inhibit viral replication reduce the levels of virion DNA in the medium, relative to controls.
Confluent cells in 24 well tissue culture dishes are treated with test compounds starting at 1 nM and extending logarithmically to 10 μM (1 nM, 3.2, 10 nM, 32, 100 nM, 1 μM, 10 μM […]). Medium is changed […] every 3 days and DNA extracted from the 3, 6, and […] day samples. The virions are concentrated by polyethylene glycol precipitation (equal volume addition of PEG 8000). After cooling on ice the samples are spun and the pellets treated with SDS and Proteinase K followed by Phenol:Chloroform extraction and ethanol precipitation of the DNA. The DNA is analyzed for HBV sequences by Southern hybridization. The probe used for the analysis is a ^32P labeled Eco RI fragment from the HBV clone described by Korba et al. 3TC is used as a positive control compound with known activity against HBV.
System: The most widely used system for the study of anti-HBV agents is the hepatoma cell culture system with the HBV genome. These cells are designated as the 2.2.15 cells, AD38 cells and AD79 cells. The 2.2.15 cells were generated by the transfection of the human hepatoma cells—HepG2 with HBV DNA. (Sells, et al., Proc. Natl. Acad. Sci. USA 84:1005–1009, 1987) HBV viral replication takes place in these cells. The HBV replication can be monitored intracellularly as well as extracellularly in these cells.
Assay for Anti-HBV agents: 2.215 cells are grown in multi-well dishes in RPMI medium supplemented with 4% fetal bovine serum. After 3 to 4 days of growing the cells, they are treated with varying concentrations of the test compound(s). The test compounds are dissolved in DMSO or sterile water. Cultures without the addition of the test compounds serve as controls. The addition of the test compound(s) is repeated at 3-day intervals. The medium is changed and replaced with appropriate concentration of the test compound. At the end of the 9-day treatment period, the culture medium is harvested and processed for viral DNA. The viral DNA thus obtained is analyzed by Southern blot analysis. After the Southern transfer, the blot is subjected to hybridization to an HBV specific probe to detect HBV DNA. The hybriodization is carried out overnight. After the hybridization, free probe is removed by washing of the blots. The specific hybridization is visualized by autoradiography. Inhibition produced by the test compound is calculated with reference to the levels of HBV DNA in the control samples.

HSV = conditions: literature; cited from earlier work
[4] = tested on: Varicella zoster virus (VZV); conditions: literature; cited from earlier work
[5] = tested on: murine leukemia virus (MuLV); conditions: literature; cited from earlier work
HSV-2 = conditions: literature; cited from earlier work
Epstein Barr virus (EBV) = conditions: literature; cited from earlier work
[6] = tested on: human cytomegalovirus (HCMV); conditions: literature; cited from earlier work
HSV-1 = conditions: literature; cited from earlier work
[7] = target: reverse transcriptase of human immunodeficiency virus (Human immunodeficiency virus type 1 group M subtype B, UniProt P03366); conditions: tested as the 5′-triphosphate; cited from earlier work

| SMILES | Activity against HIV (in words) (HIV) | EC50 (HIV-1) [µM] | IC50 (Vero cells) [µM] | IC50 (PBM cells) [µM] | EC50 (HBV [3]) [µM] | further results |
| --- | --- | --- | --- | --- | --- | --- |
| Nc1nc(=O)n([C@@H]2O[C@H](CO)[C@@H](O)[C@@H]2F)cc1I [Fiacitabine] | devoid of activity | – | – | – | – | Activity against HBV (in words) (HBV [1]): effectively inhibit replication |
| Cc1cn(C2OC(CO)C(CO)C2F)c(=O)nc1N (stereo not shown) [Compound 11 (Series 2)] | – | 112 | > 100 | > 100 | < 10 | IC50 at 10 day [2]: > 100 µM; Antiviral activity (in words) (HBV [3]; virus not named): moderate activities |
| O=c1[nH]c(=O)n(C2O[C@H](CO)[C@@H](CO)[C@@H]2O)cc1C=CBr (stereo partly drawn) [5-bromovinyl-1-(3-deoxy-3-hydroxymethyl-D-arabinofuranosyl)-uracil] | – | – | – | – | – | Activity against HSV (in words) (HSV): active |
| Cc1cn(C2CC(CO)C(CO)O2)c(=O)[nH]c1=O (stereo not shown) [Compound 4 (Series 1)] | – | 87.7 | > 100 | > 100 | > 10 | – |
| CN(O)C1C(CO)OC(n2cc(F)c(=O)[nH]c2=O)C1F (stereo not shown) [Compound 61 (Series 2)] | – | 52.3 | > 100 | > 100 | > 10 | – |
| Cc1cn([C@H]2C[C@H](CO)[C@@H](CO)O2)c(=O)[nH]c1=O [3′-deoxy-3′-hydroxymethylthymidine] | devoid of activity | – | – | – | – | Activity against VZV (in words) [4]: devoid of activity; Activity against MuLV (in words) [5]: devoid of activity; Activity against HSV-2 (in words) (HSV-2): devoid of activity; Activity against EBV (in words) (Epstein Barr virus (EBV)): devoid of activity; Activity against HCMV (in words) [6]: devoid of activity; Activity against HBV (in words) (HBV [3]; "we discovered"): potent agent; Activity against HSV-1 (in words) (HSV-1): devoid of activity |
| Cc1cn(C2CC(CO)N(C)O2)c(=O)[nH]c1=O (stereo not shown) [Compound 40 (Series 2)] | – | > 100 | > 100 | > 100 | > 10 | – |
| O=c1[nH]c(=O)n([C@@H]2O[C@H](CO)[C@@H](O)[C@@H]2F)cc1I [Fialuridine] | devoid of activity | – | – | – | – | Activity against HBV (in words) (HBV [1]): effectively inhibit replication |
| Cc1cn([C@H]2C[C@H](N=[N+]=[N-])[C@@H](CO)O2)c(=O)[nH]c1=O [Zidovudine] | – | – | – | – | – | Activity against HBV (in words) (HBV [1]): inactive; Inhibition of HIV reverse transcriptase (in words) [7]: potent inhibitor |
| CO[C@H]1C[C@H](n2cc(C)c(=O)[nH]c2=O)O[C@@H]1CO [3′-O-methylthymidine] | inactive | – | – | – | – | Inhibition of HIV reverse transcriptase (in words) [7]: exceptionally potent inhibitor |
| Nc1ccn([C@H]2C[C@H](CO)[C@@H](CO)O2)c(=O)n1 [2′,3′-dideoxy-3′-hydroxymethyl-cytidine] | good activity | – | – | – | – | Activity against HSV (in words) (HSV): active |

Reference: patent US7094770B2, “3′-or 2′-hydroxymethyl substituted nucleoside derivatives for treatment of hepatitis virus infections” (Pharmasset, Ltd., priority 2000, dated 2006)
